These results are taken from US20100099681A1, “SUBSTITUTED 5-AMINOPYRAZOLES AND USE THEREOF” (BAYER SCHERING PHARMA AKTIENGESELLSCHAFT, priority 2008, published 2010).

Assay type in all cases: cell-based
Test [1] concerns the target T1, adenosine receptor subtype A1 (A1-Gα16 fusion construct) (Homo sapiens, UniProt P30542).
T1 construct: expressed in transfected cells; host or cells: CHO K1
T1 sequence (P30542 with tags, fused parts or gaps): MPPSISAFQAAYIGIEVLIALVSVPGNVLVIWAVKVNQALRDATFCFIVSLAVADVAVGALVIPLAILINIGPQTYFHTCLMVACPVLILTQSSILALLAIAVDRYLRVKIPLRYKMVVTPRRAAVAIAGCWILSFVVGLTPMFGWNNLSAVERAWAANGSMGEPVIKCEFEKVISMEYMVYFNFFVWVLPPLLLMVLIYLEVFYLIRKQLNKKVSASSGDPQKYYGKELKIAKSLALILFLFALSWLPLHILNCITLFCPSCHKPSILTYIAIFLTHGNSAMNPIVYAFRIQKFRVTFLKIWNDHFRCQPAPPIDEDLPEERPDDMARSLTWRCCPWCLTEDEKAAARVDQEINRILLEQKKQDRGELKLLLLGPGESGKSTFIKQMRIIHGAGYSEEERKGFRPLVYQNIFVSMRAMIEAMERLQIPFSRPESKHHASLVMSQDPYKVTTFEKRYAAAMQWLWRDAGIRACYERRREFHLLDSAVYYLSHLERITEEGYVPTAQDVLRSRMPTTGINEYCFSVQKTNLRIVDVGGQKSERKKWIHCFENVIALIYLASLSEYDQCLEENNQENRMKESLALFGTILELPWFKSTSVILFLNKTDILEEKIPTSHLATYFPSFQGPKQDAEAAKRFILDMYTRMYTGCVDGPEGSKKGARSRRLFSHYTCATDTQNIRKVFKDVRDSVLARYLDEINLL
Put plainly: Indirect determination of adenosine antagonism via gene expression (luciferase reporter), A1. The note with it: CHO K1 cells, NFAT-TA-Luc reporter, inhibition of luciferase response to agonist 25 nM CPA. The protocol: For determination of adenosine antagonism on the adenosine receptor subtype A1, once again CHO K1 cells are stably transfected, but this time with a Ca^2+-sensitive reporter construct (NFAT-TA-Luc; Clontech) and an A1-Gα16 fusion construct. This receptor chimera is, in contrast to the native A1 receptor (Gαi-coupling), coupled to phospholipase C. The luciferase is expressed here as a function of the cytosolic Ca^2+ concentration.
(§1) The permanent cell lines are cultured in DMEM/F12-Glutamax (Cat.No. 31331-028; Gibco) with 10% FCS (fetal calf serum) and various additives (10 ml/liter 1M HEPES (Cat.No. 15630; Gibco), 14 ml/liter MEM sodium pyruvate (Cat.No. 11360-039; Gibco) at 37° C. under 5% carbon dioxide, and split twice weekly.
(§2) For testing in the 384-well or 96-well plate format, the cells are sown at 2000 or 5000 cells/well in 25 or 50 μl/well test medium (OptiMEM-Glutamax with 2.5% activated-charcoal-treated FCS, Hyclone) and cultured at 37° C. under 5% carbon dioxide until substance testing. The A2a and A2b cells are sown, 24 h before substance testing, in OptiMEM with 2.5% activated-charcoal-treated FCS (Hyclone). The A1-Gα16 cells are sown, 48 h before substance testing, in OptiMEM-Glutamax with 2.5% activated-charcoal-treated FCS and additives. The substances are pipetted at a final concentration from 1×10^−5 M to 1×10^−11 M to the test cultures, with the DMSO content on the cells not exceeding 0.5%. NECA (5-N-ethyl-carboxamido-adenosine) at a final concentration of 30 nM, which roughly corresponds to the EC50 concentration, is used as agonist for the A2a and A2b cells. 25 nM CPA (N6-cyclopenty adenosine), which roughly corresponds to the EC7-5 concentration, is used as agonist for the A1-Ga16 cells. After adding the substances, the cell plates are incubated for 3-4 h at 37° C. under 5% carbon dioxide. Then 50 μl of a solution consisting to 50% of lysis reagent (Triton buffer, PAA Cat.No. T21-160) and to 50% of luciferase substrate solution (2.5 mM ATP, 0.5 mM luciferin, 0.1 mM coenzyme A, 10 mM Tricin, 1.35 mM magnesium sulfate, 15 mM DTT, pH 7.8) is added to the cells directly before measurement. The luciferase activity is detected with a luminescence reader. The IC50 values are determined, i.e. the concentrations at which the luciferase response, produced by the respective agonist, is inhibited to 50%. The IC50 values are calculated with the computer program GraphPad PRISM (Version 3.02). ZM241385, for the A2a and A2b cells, and DPCPX (1,3-dipropyl-8-cyclopentylxanthine), for the A1-Gα16 cells, are used as reference antagonist.
A general note: A reporter such as luciferase makes a cellular process visible.

Test [2] deals with T2, adenosine receptor subtype A2a (Homo sapiens, UniProt P29274).
T2 construct: expressed in transfected cells; host or cells: CHO K1
Put plainly: Indirect determination of adenosine antagonism via gene expression (luciferase reporter), A2a. The conditions noted are these: CHO K1 cells, CRE luciferase reporter; inhibition of luciferase response to agonist 30 nM NECA.
Excerpt: (§3) Cells of the permanent line CHO K1 (Chinese Hamster Ovary) are stably transfected with a reporter construct (CRE luciferase) and the cDNA for the adenosine receptor subtypes A2a or A2b. A2a or A2b receptors are coupled via Gαs proteins to adenylate cyclase. Through receptor activation, the adenylate cyclase is activated and therefore the cAMP level in the cell is increased. Via the reporter construct, a cAMP-dependent promoter, the change in the cAMP level is coupled to luciferase expression.
as §1, §2

In test [3] the target is T3, adenosine receptor subtype A2b (Homo sapiens, UniProt P29275).
T3 construct: expressed in transfected cells; host or cells: CHO K1
T3 sequence (P29275 1-332): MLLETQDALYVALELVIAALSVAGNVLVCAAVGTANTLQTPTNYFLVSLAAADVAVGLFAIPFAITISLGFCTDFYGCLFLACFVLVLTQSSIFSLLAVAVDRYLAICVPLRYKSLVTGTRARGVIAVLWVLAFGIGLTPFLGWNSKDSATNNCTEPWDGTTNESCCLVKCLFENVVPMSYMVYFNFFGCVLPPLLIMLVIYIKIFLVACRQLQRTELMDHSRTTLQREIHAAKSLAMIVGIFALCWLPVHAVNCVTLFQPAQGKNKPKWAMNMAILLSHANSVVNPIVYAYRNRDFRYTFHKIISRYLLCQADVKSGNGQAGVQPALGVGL
Nature of the test: Indirect determination of adenosine antagonism via gene expression (luciferase reporter), A2b. The conditions noted are these: CHO K1 cells, CRE luciferase reporter; inhibition of luciferase response to agonist 30 nM NECA.
Excerpt: as §3, §1, §2

T2 sequence (P29274 whole entry): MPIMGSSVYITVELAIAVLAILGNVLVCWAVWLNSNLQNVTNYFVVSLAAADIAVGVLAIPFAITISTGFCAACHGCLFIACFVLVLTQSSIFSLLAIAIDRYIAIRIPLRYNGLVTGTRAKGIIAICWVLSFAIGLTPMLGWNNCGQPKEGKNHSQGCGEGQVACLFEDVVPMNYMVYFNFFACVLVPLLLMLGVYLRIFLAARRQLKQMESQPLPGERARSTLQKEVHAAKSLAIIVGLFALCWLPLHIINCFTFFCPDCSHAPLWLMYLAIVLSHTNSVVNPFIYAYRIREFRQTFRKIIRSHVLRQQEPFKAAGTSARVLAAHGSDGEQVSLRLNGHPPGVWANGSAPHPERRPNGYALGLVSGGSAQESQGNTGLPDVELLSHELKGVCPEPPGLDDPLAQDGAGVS

As a reminder, the IC50 is the midpoint of a concentration-inhibition curve. The low end stands for inhibition by little substance, the high end for a need for much substance. For the compound `Cc1ccccc1-n1nc(C)c(-c2ccc3nccnc3c2)c1Nc1ccc(Cl)cc1C(=O)O` [Example 2, 2-{[4-(Quinoxalin-6-yl)-3-methyl-1-(2-methylphenyl)-1H-pyrazol-5-yl]amino}-5-chlorobenzoic acid], the figures for the IC50 in test [1], in test [2] and in test [3] were 1 nM, > 10000 nM and > 10000 nM, respectively.
Consider `Cc1ccccc1-n1nc(C(F)(F)F)c(-c2ccc3nccnc3c2)c1Nc1ccc(Cl)cc1C(=O)O` [Example 6, 2-{[4-(Quinoxalin-6-yl)-1-(2-methylphenyl)-3-(trifluoromethyl)-1H-pyrazol-5-yl]amino}-5-chlorobenzoic acid], for which the IC50 in test [1] is 9.5 nM; in test [2], > 10000 nM; in test [3], > 10000 nM.
Turning to `COc1ccc(Nc2c(-c3ccc4[nH]ncc4c3)c(C)nn2-c2ccccc2C)c(C(=O)O)c1` [Example 9, 2-{[4-(1H-Indazol-5-yl)-3-methyl-1-(2-methylphenyl)-1H-pyrazol-5-yl]amino}-5-methoxybenzoic acid], the 50% inhibitory concentration (IC50) is 11.2 nM in test [1], > 10000 nM in test [2] and > 10000 nM in test [3].
Turning to `COc1ccc(Nc2c(-c3ccc4scnc4c3)c(C)nn2-c2ccccc2C)c(C(=O)O)c1` [Example 11, 2-{[4-(1,3-Benzothiazol-5-yl)-3-methyl-1-(2-methylphenyl)-1H-pyrazol-5-yl]amino}-5-methoxybenzoic acid], the results for the IC50 in test [1], in test [2] and in test [3] were 11.7 nM, > 10000 nM and > 10000 nM, respectively.
Regarding `CCc1ccc(Nc2c(-c3ccc4nccnc4c3)c(C)nn2-c2ccccc2C)c(C(=O)O)c1` [Example 13, 2-{[4-(Quinoxalin-6-yl)-3-methyl-1-(2-methylphenyl)-1H-pyrazol-5-yl]amino}-5-ethylbenzoic acid], the IC50 was 1 nM in test [1], > 10000 nM in test [2] and > 10000 nM in test [3].
Regarding `COc1ccc(Nc2c(-c3cc4nccnc4cc3F)c(C)nn2-c2ccccc2C)c(C(=O)O)c1` [Example 16, 2-{[4-(7-Fluoroquinoxalin-6-yl)-3-methyl-1-(2-methylphenyl)-1H-pyrazol-5-yl]amino}-5-methoxybenzoic acid], the half-maximal inhibitory concentration (IC50) in test [1] is 1.6 nM; in test [2] it was > 10000 nM; in test [3], > 10000 nM.
Take `COc1ccc(Nc2c(-c3ccc4ncnn4c3)c(C)nn2-c2ccccc2C)c(C(=O)O)c1` [Example 20, 5-Methoxy-2-{[3-methyl-1-(2-methylphenyl)-4-([1,2,4]triazolo[1,5-a]pyridin-6-yl)-1H-pyrazol-5-yl]amino}benzoic acid]: the IC50 in test [1] was 1.9 nM; in test [2], > 10000 nM; in test [3] it was > 10000 nM.
In the case of `CCOc1ccccc1-n1nc(C)c(-c2ccc3nccnc3c2)c1Nc1ccc(OC)cc1C(=O)O` [Example 22, 2-{[4-(Quinoxalin-6-yl)-1-(2-ethoxyphenyl)-3-methyl-1H-pyrazol-5-yl]amino}-5-methoxybenzoic acid], the IC50 is 1 nM in test [1], > 10000 nM in test [2] and > 10000 nM in test [3].
As to `Cc1ccccc1-n1nc(C)c(-c2ccc3cccnc3c2)c1Nc1ccccc1C(=O)O` [Example 27, 2-{[4-(Quinolin-7-yl)-3-methyl-1-(2-methylphenyl)-1H-pyrazol-5-yl]amino}benzoic acid], the IC50 in test [1] was 99 nM; in test [2] it was > 10000 nM; in test [3], > 10000 nM.
The compound `Cc1ccccc1-n1nc(C)c(-c2ccc3ncc(N(C)C)nc3c2)c1Nc1ccccc1C(=O)O` [Example 28, 2-({4-[3-(Dimethylamino)quinoxalin-6-yl]-3-methyl-1-(2-methylphenyl)-1H-pyrazol-5-yl}amino)benzoic acid] showed an IC50 in test [1] of 19 nM.
Same read-out and setting: in the case of `Cc1ccccc1-n1nc(C)c(-c2cc3nccnc3c(F)c2OCCO)c1Nc1ccccc1C(=O)O` [Example 31, 2-({4-[8-Fluoro-7-(2-hydroxyethoxy)quinoxalin-6-yl]-3-methyl-1-(2-methylphenyl)-1H-pyrazol-5-yl}amino)benzoic acid] it was 42 nM; in that of `COc1ccnc2ccc(-c3c(C)nn(-c4ccccc4C)c3Nc3ccccc3C(=O)O)cc12` [Example 32, 2-{[4-(4-Methoxyquinolin-6-yl)-3-methyl-1-(2-methylphenyl)-1H-pyrazol-5-yl]amino}benzoic acid], 78 nM.
As for `Cc1ccccc1-n1nc(C)c(-c2cc(F)c3nccnc3c2)c1Nc1ccccc1C(=O)O` [Example 33, 2-{[4-(8-Fluoroquinoxalin-6-yl)-3-methyl-1-(2-methylphenyl)-1H-pyrazol-5-yl]amino}benzoic acid], the IC50 is 0.6 nM in test [1], > 10000 nM in test [2] and > 10000 nM in test [3].
`Cc1nn(-c2ccccc2)c(Nc2ccccc2C(=O)O)c1-c1cc2nccnc2c(F)c1F` [Example 36, 2-{[4-(7,8-Difluoroquinoxalin-6-yl)-3-methyl-1-phenyl-1H-pyrazol-5-yl]amino}benzoic acid]: the IC50 in test [1] is 0.7 nM; in test [2] it was > 10000 nM; in test [3], > 10000 nM.
Regarding `Cc1ccccc1-n1nc(C)c(-c2ccn3nc(N)nc3c2)c1Nc1ccccc1C(=O)O` [Example 39, 2-{[4-(2-Amino [1,2,4]triazolo[1,5-a]pyridin-7-yl)-3-methyl-1-(2-methylphenyl)-1H-pyrazol-5-yl]amino}benzoic acid], the IC50 in test [1] is 1 nM; in test [2] it was > 10000 nM; in test [3] it was > 10000 nM.
As for `Cc1ccccc1-n1nc(C)c(-c2cc(F)c3cncnc3c2)c1Nc1ccccc1C(=O)O` [Example 43, 2-{[4-(5-Fluoroquinazolin-7-yl)-3-methyl-1-(2-methylphenyl)-1H-pyrazol-5-yl]amino}benzoic acid], the IC50 in test [1] is 23 nM; in test [2] it was > 10000 nM; in test [3] it was > 10000 nM.
For `Cc1nn(-c2ccc(F)cc2F)c(Nc2ccccc2C(=O)O)c1-c1cc(F)c2nccnc2c1` [Example 46, 2-{[1-(2,4-Difluorophenyl)-4-(8-fluoroquinoxalin-6-yl)-3-methyl-1H-pyrazol-5-yl]amino}benzoic acid], the IC50 in test [1] is 8.5 nM; in test [2], > 10000 nM; in test [3], > 10000 nM.
